Test results taken from US4898863A, “Heterocyclic carboxamides” (ICI Americas Inc., priority 1986, dated 1990).

Experiments:
leukotriene LTD4 = assay: in vivo guinea-pig aerosol test (leukotriene LTD4 challenge, time of onset of breathing changes); conditions: Cavia porcellus, oral, read-out: effective dose following oral administration
[1] = overt toxicity / untoward side-effects in dosed laboratory animals; type: in vivo, guinea-pig

Compound: COc1cc(C(=O)NS(=O)(=O)c2ccccc2C)ccc1Cn1cc(CCC(=O)N2CCCC2)c2ccc(C(=O)NCC3CCCC3)cc21 [Example 8, N-[4-[6-(N-Cyclopentylmethylcarbamoyl)-3-[2-(pyrrolidinocarbonyl)ethyl]indol-1-ylmethyl]-3-methoxybenzoyl]-2-methylbenzesulphonamide]
- minimal effective dose (leukotriene LTD4): 2000 µmol/kg
- oral dose showing no sign of overt toxicity [1]: 30 mmol/kg
